Holding throughout (assay): NCI anticancer screen, dose series, 48 h
Assay [1] concerns SK-MEL-28 melanoma.
For assay [2], the system named is MOLT-4 leukemia.
Assay [3] relates to CAKI-1 renal.
The test system of assay [4] is NCI-H23 lung.
For assay [5], the system named is LOX IMVI melanoma.
The subject of assay [6] is SK-MEL-5 melanoma.
The test system of assay [7] is HOP-92 NSCLC.
The subject of assay [8] is OVCAR-8 ovarian.
The subject of assay [9] is SNB-75 CNS.
In assay [10] the test system is HOP-62 NSCLC.

Several values for one entry are separate records, joined by “and”; a condition that tells them apart may be missing. Identical values can stand only once.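 How tested: cells in 96-well plates exposed to compound for 48 hours at five concentrations. The concentration for 50% growth inhibition is given as GI50. TGI: total growth inhibition.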

Turning to `COc1ccc(/C=C/c2nc(=S)[nH][nH]2)cc1`, the TGI in [1], in assay [2], in assay [3], in assay [4], in assay [5] and in assay [6] was more than 100 µM each time. The TGI in assay [7], in assay [8] and in assay [9] was more than 100 µM throughout.

For `NS(=O)(=O)c1ccc(NC(=O)CC(=O)Nc2ccc(S(N)(=O)=O)cc2)cc1`, the TGI in assay [1], in assay [2], in assay [3], in [4], in assay [5] and in assay [6] was more than 100 µM throughout. The TGI in [7], in [8], in assay [9] and in assay [10] was more than 100 µM each time.

In the case of `NC(N)=N/N=C/c1cccc(Cl)c1Cl`, the GI50 is 4.24 µM in [1]; 6.13 µM in [2]; 6.62 µM in [3]; 11.2 µM in assay [4]; 2.49 µM in [5]; 2.33 µM in [6]. Moreover, the GI50 was 1.19 µM in assay [7], 8.93 µM in assay [8], 11.6 µM in [9] and 11.7 µM in assay [10]. The TGI turned out to be 14.7 µM in [1]; 23.9 µM in assay [2]; 21.8 µM in [3]; 26.4 µM in assay [4]; 8.4 µM in assay [5]; 6.64 µM in [6]. Also, the TGI came to 5.88 µM in [7], 25.8 µM in [8], 26.9 µM in assay [9] and 24.1 µM in assay [10].

`Fc1ccc(F)c(C2SCc3nc4ccccc4n32)c1` (stereo unspecified): the TGI was 91.6 µM in assay [2]; more than 100 µM in assay [3]; more than 100 µM in [4]; more than 100 µM in assay [5]; 46.6 µM in assay [6]; more than 100 µM in [7]. Also, the TGI in assay [8], in assay [9] and in [10] was more than 100 µM in each case.

As to `COc1ccc(NC(=O)c2sc3nc(C)c(C(O)c4ccc(OC)cc4)cc3c2N)cc1` (stereo unspecified), the GI50 was 6.22 µM in [1]; 2.17 µM in assay [2]; 0.803 µM in [3]; 2.06 µM in assay [4]; 1.4 µM in [5]; 0.569 µM in [6]. Further, the GI50 in assay [7] is 5.62 µM; in [8] it was 1.79 µM; in assay [9], 0.815 µM; in [10] it was 2.03 µM. For the same molecule, the TGI in assay [1] is more than 50 µM; in [2], more than 50 µM; in assay [3] it was more than 50 µM; in assay [4], more than 50 µM; in assay [5], more than 50 µM; in assay [6] it was 6.82 µM. Moreover, the TGI in assay [7] was more than 50 µM; in assay [8], more than 50 µM; in assay [9] it was 17.3 µM; in assay [10], more than 50 µM.

Turning to `CC(=O)OCC(OC(C)=O)C(OC(C)=O)C(OC(C)=O)C(=O)CNn1c(-c2ccccc2)nc2ccc(Br)cc2c1=O` (stereo unspecified), the TGI in assay [1], in assay [2], in [3], in [4], in assay [5] and in [6] was more than 100 µM throughout. Also, the TGI in assay [8], in assay [9] and in [10] was more than 100 µM each time.

As to `Cc1c(C2Cc3ccccc3N2C(=O)/C=C\C(=O)O)c2ccccc2n1C` (stereo unspecified), the TGI turned out to be 93.3 µM in assay [2]; 78.7 µM in assay [3]; 62.9 µM in [4]; 32.6 µM in assay [5]; 41.5 µM in assay [6]; 36.3 µM in [7]. The TGI in assay [8] turned out to be 43.6 µM; in assay [9] it was 74.2 µM; in [10], 57.1 µM.

As to `CN(C)CCOc1nc2c3cccnc3cc(-c3cccc(Cl)c3)c2c2ncccc12`, the GI50 in [1] was 1.65 µM; in [2] it was 0.488 µM; in assay [3], 1.1 µM; in assay [4], 1.51 µM; in [5], 0.968 µM; in assay [6] it was 1.78 µM. The figures for the GI50 in assay [7], in assay [9] and in assay [10] were 2.04 µM, 1.23 µM and 1.43 µM, respectively. The TGI in [1] came to 3.07 µM; in [2], 2.41 µM; in assay [3] it was 2.92 µM; in assay [4], 3.34 µM; in [5] it was 4.5 µM; in assay [6] it was 3.2 µM. Moreover, the TGI came out at 8.42 µM in assay [7], 7.78 µM in assay [9] and 3.26 µM in assay [10].

Regarding `CC(C)=CCC/C(C)=C/CC/C(=C/COP(=O)(OCc1ccc([N+](=O)[O-])o1)N(C)CCCCCl)CC=C(C)C` (stereo unspecified), the GI50 in assay [1] was 19.6 µM; in assay [2] it was 4.14 µM; in assay [3], 4.06 µM; in [5] it was 2.92 µM; in [6], 3.96 µM; in assay [7], 16.5 µM. In addition, the figures for the GI50 in assay [8] and in [9] were 3.04 µM and 12.1 µM, respectively. The TGI was 43 µM in [1]; more than 100 µM in assay [2]; 19.7 µM in assay [3]; 11.5 µM in assay [5]; 12.1 µM in assay [6]; 36 µM in [7]. The TGI in assay [8] was found to be 13.5 µM; in assay [9], 36.8 µM.

For `CCOC(=O)CC1=NC(=Nc2cc(Cl)ccc2Cl)SC1`, the TGI in assay [1], in assay [3], in [4], in assay [5], in assay [6] and in assay [7] was more than 100 µM in each case. Also, the TGI in [8], in [9] and in assay [10] was more than 100 µM in each case.

As to `Oc1ccc(Br)cc1/C=N/NC(=S)NC12CC3CC(CC(C3)C1)C2`, the GI50 in assay [1] was 2.66 µM; in [2], 1.89 µM; in [3], 2.67 µM; in assay [5] it was 1.22 µM; in [6], 1.72 µM; in [7], 2.35 µM. In addition, the figures for the GI50 in [8], in assay [9] and in assay [10] were 1.6 µM, 2.03 µM and 1.52 µM, respectively. In addition, the TGI worked out at 10.1 µM in assay [1]; 6.81 µM in assay [2]; 8.59 µM in assay [3]; 2.88 µM in assay [5]; 3.74 µM in assay [6]; 6.58 µM in assay [7]. The TGI in assay [8] came out at 4.4 µM; in [9], 7.15 µM; in assay [10] it was 3.32 µM.

For `CC[C@@H](C)[C@H]([C@H](CC(=O)N1CCC[C@@H]1[C@@H](OC)[C@H](C)C(=O)N[C@H](Cc1ccccc1)c1nccs1)OC)N(C)C(=O)[C@H](NC(=O)[C@@H](C(C)C)N(C)C)C(C)C`, the GI50 is 1.26 µM in assay [1]; 0.000245 µM and 0.000425 µM in [3]; 0.000425 µM in [5]; 0.000425 µM in [7]; 0.000425 µM in assay [8]; 0.000425 µM in [9]. Further, the TGI in assay [1] is more than 100 µM; in [2] it was more than 28.4 µM; in assay [4] it was 0.00554 µM and < 0.215 µM; in [6] it was 0.000656 µM.

Regarding `O=C1NC(=O)C2(CCC(O)C2)c2cc[n+]([O-])cc21` (stereo unspecified), the TGI in assay [1], in [2], in [3], in assay [4], in assay [5] and in [7] was more than 100 µM throughout. The TGI in [8], in assay [9] and in assay [10] was more than 100 µM each time.

For `CCOC(=O)C1=C(NC(C)(C)C)OCC1=O`, the TGI in assay [1], in [2], in assay [3], in [4], in assay [5] and in assay [7] was more than 100 µM in each case. Moreover, the TGI in [8], in assay [9] and in assay [10] was more than 100 µM in each case.

With `O=C1OC(c2ccccc2)=N/C1=C\c1c(O)cc(O)cc1O`, the TGI in assay [1], in assay [2], in [3], in [4], in assay [5] and in [6] was more than 100 µM in each case. The TGI in assay [7], in assay [8] and in assay [9] was more than 100 µM each time.

As for `O=C1/C(=C/c2ccc([N+](=O)[O-])s2)Oc2ccccc21`, the GI50 in assay [1] is 1.25 µM; in assay [2], 0.654 µM; in [3], 2.2 µM; in [4], 1.31 µM; in [5], 0.434 µM; in [6] it was 1.18 µM. Also, the GI50 in assay [7] was 0.557 µM; in assay [8], 0.297 µM; in assay [9], 1.03 µM. The TGI was 2.65 µM in assay [1]; 3.23 µM in assay [2]; 5.22 µM in [3]; 3.19 µM in assay [4]; 1.64 µM in [5]; 2.62 µM in assay [6]. Further, the TGI was 2.29 µM in [7], 1.68 µM in assay [8] and 5.98 µM in [9].

Take `O=C(CCc1ccccc1)On1nnc2ccccc2c1=O`: the TGI in assay [2], in assay [3], in [4], in assay [5], in assay [6] and in assay [7] was more than 100 µM each time. In addition, the TGI in assay [8], in [9] and in assay [10] was more than 100 µM throughout.

With `CN1CCN(Cc2ccc(NC(=O)c3[nH]ncc3Nc3ncnc4sccc34)cc2)CC1`, the GI50 in assay [1] was 0.857 µM; in assay [2], 0.207 µM; in [3], 0.563 µM; in assay [5] it was 0.213 µM; in [8], 0.413 µM; in [9], 0.023 µM. In addition, in [10], the GI50 was 0.437 µM. For the same molecule, the TGI is more than 100 µM in assay [1]; 0.853 µM in [2]; more than 100 µM in [3]; 1.07 µM in assay [5]; more than 100 µM in assay [8]; 2.3 µM in assay [9]. This molecule displayed a TGI in [10] of more than 100 µM.

`C[C@H]1COC2(c3ccccc3)CCC(=O)N12` (stereo partly specified): the TGI in assay [1], in [3], in assay [4], in assay [5], in assay [6] and in [7] was more than 100 µM in each case. The TGI in [8], in assay [9] and in [10] was more than 100 µM throughout.

Take `O=C(O)C(Br)C(Br)c1ccccc1[N+](=O)[O-]` (stereo unspecified): the TGI in [1], in assay [3], in assay [4], in assay [5], in assay [6] and in assay [7] was more than 100 µM in each case. The TGI in assay [8], in [9] and in assay [10] was more than 100 µM in each case.

In the case of `CCOC(=O)CNC(=O)CCCn1c(=O)c2c3ccccc3n(C)c2n2nnc(-c3ccccc3)c12`, the GI50 in assay [1] was more than 50 µM; in [2], more than 50 µM; in [3], 8.37 µM; in [4] it was 11.8 µM; in [5], 25.1 µM; in assay [7] it was 3.6 µM. For the same molecule, the results for the GI50 in [8], in assay [9] and in assay [10] were 25.2 µM, 1.12 µM and 5.88 µM, respectively. In addition, the TGI in assay [1] is more than 50 µM; in [2], more than 50 µM; in assay [3], 20 µM; in assay [4], more than 50 µM; in [5] it was more than 50 µM; in assay [7], 14.8 µM. For the same molecule, the TGI in assay [8] was more than 50 µM; in assay [9] it was 3.59 µM; in [10] it was 17.7 µM.

Source of the values: PubChem BioAssay (NCI).
